From patent USRE35044E, “Cyanine compounds” (Asahi Chemical Co., Ltd., priority 1987, dated 1995)
One block for each molecule: values may come before it.

Experiments:
[1] = Test for solubility in solvent; format: physicochemical
Protocol: Each of cyanine dyes as shown below in Table 2 was dissolved in methanol and the solubility was determined at room temperature with the results indicated below in Table 2.

[2] = Absorption maximum and molar absorptivity in solution; format: physicochemical; set-up: ε: unit not given here

SMILES: CCOc1ccc2c(c1)C(C)(C)C(=CC=CC=CC=CC1=[N+](C)c3ccc(OCC)cc3C1(C)C)N2C [Compound A]
solubility in solvents (in words) [1]: does not exhibit good solubility

SMILES: CCOc1ccc2c(c1)C(C)(C)C(=CC=CC=CC1=[N+](C)c3ccc(OCC)cc3C1(C)C)N2C [Compound B]
solubility in solvents (in words) [1]: not satisfactory in solubility

SMILES: CCOc1cc(C)c2c(c1)C(C)(C)C(=CC=CC=CC1=[N+](CC)c3c(C)cc(OCC)cc3C1(C)C)N2CC [Preparation Example 7]
ε ([2]; dichloroethane): 1.75×10^5

More lines, now with the values ahead:

ε ([2]; alcohol): 1.84×10^5 | λmax ([2]; alcohol): 693 nm
SMILES: CCN1C(=CC=CC=CC2=[N+](CC)c3c(OC)cc(OC)cc3C2(C)C)C(C)(C)c2cc(OC)cc(OC)c21 [Preparation Example 1]

ε ([2]; dichloromethane): 1.72×10^5
SMILES: CCOc1cc(OCC)c2c(c1)C(C)(C)C(=CC=CC=CC1=[N+](CC)c3c(OCC)cc(OCC)cc3C1(C)C)N2CC [Preparation Example 2]
